Source: PubChem BioAssay AID2060506 (Molecular Pharmacology Branch, DTP, NCI, 2025)

System: 598228-144-R-J1-PDC complex spheroid viability
Assay: Anticancer human tumor 598228-144-R-J1-PDC patient-derived serous endometrial adenocarcinoma cell line growth inhibition [GQUAD]
Conditions: for IC50: curve of first compound; for viability, T/C: stronger effect = lower value; active = viability on the fitted dose curve at most 10% of control; inactive = the rest
Procedure, shortened: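 Multi-cell-type spheroids of tumor cells with HUVEC and mesenchymal stem cells, treated with drug combinations. Concentrations descend in half-log steps from near clinical Cmax, or from 10 microM where Cmax is unknown; viability read-out.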

[1] = second compound 0.0316 µM, first compound 0.0316 µM
[2] = second compound 0.0316 µM, first compound 0.1 µM
[3] = second compound 0.0316 µM, first compound 0.316 µM
[4] = second compound 0.0316 µM, first compound 1 µM
[5] = second compound 0.0316 µM, first compound 3.16 µM
[6] = second compound 0.0316 µM, first compound 10 µM
[7] = second compound 0.1 µM, first compound 0.0316 µM
[8] = second compound 0.1 µM, first compound 0.1 µM
[9] = second compound 0.1 µM, first compound 0.316 µM
[10] = second compound 0.1 µM, first compound 1 µM
[11] = second compound 0.1 µM, first compound 3.16 µM
[12] = second compound 0.1 µM, first compound 10 µM
[13] = second compound 0.316 µM, first compound 0.0316 µM
[14] = second compound 0.316 µM, first compound 0.1 µM
[15] = second compound 0.316 µM, first compound 0.316 µM
[16] = second compound 0.316 µM, first compound 1 µM
[17] = second compound 0.316 µM, first compound 3.16 µM
[18] = second compound 0.316 µM, first compound 10 µM
[19] = second compound 1 µM, first compound 0.0316 µM
[20] = second compound 1 µM, first compound 0.1 µM
[21] = second compound 1 µM, first compound 0.316 µM
[22] = second compound 1 µM, first compound 1 µM
[23] = second compound 1 µM, first compound 3.16 µM
[24] = second compound 1 µM, first compound 10 µM
[25] = second compound 3.16 µM, first compound 0.0316 µM
[26] = second compound 3.16 µM, first compound 0.1 µM
[27] = second compound 3.16 µM, first compound 0.316 µM
[28] = second compound 3.16 µM, first compound 1 µM
[29] = second compound 3.16 µM, first compound 3.16 µM
[30] = second compound 3.16 µM, first compound 10 µM
[31] = second compound 10 µM, first compound 0.0316 µM
[32] = second compound 10 µM, first compound 0.1 µM
[33] = second compound 10 µM, first compound 0.316 µM
[34] = second compound 10 µM, first compound 1 µM
[35] = second compound 10 µM, first compound 3.16 µM
[36] = second compound 10 µM, first compound 10 µM
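Also: spheroids exposed to the agents for one week before reading.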
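For viability, T/C in this document: percent of vehicle DMSO control viability so 100% = untreated growth.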

C=CC(=O)N1CCN(c2nc(=O)n(-c3c(C)ccnc3C(C)C)c3nc(-c4c(O)cccc4F)c(F)cc23)C(C)C1 (stereo unspecified) + Cc1cnc(CNC(=O)c2c(=O)c3ccc(N4CCCN(C)CC4)nc3n3c2sc2ccccc23)cn1
< 0.0316 µM: IC50 (second compound 10 µM)
active: viability, T/C [36] 5.43%
inactive: viability, T/C [1] 92.7% | viability, T/C [2] 97.3% | viability, T/C [3] 91% | viability, T/C [4] 83.2% | viability, T/C [5] 102% | viability, T/C [6] 82.9% | viability, T/C [7] 80.8% | viability, T/C [8] 66.3% | viability, T/C [9] 77.6% | viability, T/C [10] 81.7% | viability, T/C [11] 86.4% | viability, T/C [12] 80.4% | viability, T/C [13] 89.3% | viability, T/C [14] 55.1% | viability, T/C [15] 62.6% | viability, T/C [16] 73.3% | viability, T/C [17] 80.6% | viability, T/C [18] 64.1% | viability, T/C [19] 65.1% | viability, T/C [20] 74.9% | viability, T/C [21] 58.2% | viability, T/C [22] 83% | viability, T/C [23] 77.6% | viability, T/C [24] 79.8% | viability, T/C [25] 69% | viability, T/C [26] 60.4% | viability, T/C [27] 60.1% | viability, T/C [28] 55.4% | viability, T/C [29] 63.3% | viability, T/C [30] 54% | viability, T/C [31] 48.1% | viability, T/C [32] 36% | viability, T/C [33] 60.9% | viability, T/C [34] 50.9% | viability, T/C [35] 51.5%
> 10 µM: IC50 (second compound 0.0316 µM) | IC50 (second compound 0.1 µM) | IC50 (second compound 0.316 µM) | IC50 (second compound 1 µM) | IC50 (second compound 3.16 µM)

COc1ncnc(C2CC2)c1-c1ncc2cnn(Cc3ccc(-c4nc(C(F)(F)F)cn4C(C)C)cc3)c2n1 + CN(C)c1ccc(Nc2c3ccc(NC(=O)CCN4CCCC4)cc3nc3cc(NC(=O)CCN4CCCC4)ccc23)cc1
> 10 µM: IC50 (second compound 0.0316 µM) | IC50 (second compound 0.1 µM) | IC50 (second compound 0.316 µM) | IC50 (second compound 1 µM) | IC50 (second compound 3.16 µM) | IC50 (second compound 10 µM)
inactive: viability, T/C [1] 91.3% | viability, T/C [2] 111% | viability, T/C [3] 95.9% | viability, T/C [4] 92.2% | viability, T/C [5] 111% | viability, T/C [6] 89.9% | viability, T/C [7] 105% | viability, T/C [8] 97.9% | viability, T/C [9] 101% | viability, T/C [10] 85.5% | viability, T/C [11] 102% | viability, T/C [12] 110% | viability, T/C [13] 112% | viability, T/C [14] 115% | viability, T/C [15] 99% | viability, T/C [16] 88.7% | viability, T/C [17] 120% | viability, T/C [18] 110% | viability, T/C [19] 112% | viability, T/C [20] 90.6% | viability, T/C [21] 102% | viability, T/C [22] 75.1% | viability, T/C [23] 95.2% | viability, T/C [24] 90.5% | viability, T/C [25] 89.8% | viability, T/C [26] 108% | viability, T/C [27] 94.3% | viability, T/C [28] 105% | viability, T/C [29] 90.9% | viability, T/C [30] 91.5% | viability, T/C [31] 84% | viability, T/C [32] 67.8% | viability, T/C [33] 72.2% | viability, T/C [34] 77.1% | viability, T/C [35] 71.1% | viability, T/C [36] 51.5%

Cc1cccc(N(C)C(=O)C2C(O)CCN2c2nc(C)cc(C(F)(F)F)c2C#N)c1 (stereo unspecified) + Cc1cnc(CNC(=O)c2c(=O)c3ccc(N4CCCN(C)CC4)nc3n3c2sc2ccccc23)cn1
> 10 µM: IC50 (second compound 0.0316 µM) | IC50 (second compound 0.1 µM) | IC50 (second compound 0.316 µM) | IC50 (second compound 1 µM) | IC50 (second compound 3.16 µM)
< 0.0316 µM: IC50 (second compound 10 µM)
inactive: viability, T/C [1] 92.7% | viability, T/C [2] 83.7% | viability, T/C [3] 91% | viability, T/C [4] 99% | viability, T/C [5] 112% | viability, T/C [6] 91.4% | viability, T/C [7] 76.8% | viability, T/C [8] 69.3% | viability, T/C [9] 64.4% | viability, T/C [10] 67.9% | viability, T/C [11] 86.6% | viability, T/C [12] 66.5% | viability, T/C [13] 63.2% | viability, T/C [14] 66.6% | viability, T/C [15] 70.3% | viability, T/C [16] 63.6% | viability, T/C [17] 61.3% | viability, T/C [18] 60.2% | viability, T/C [19] 68.9% | viability, T/C [20] 62.5% | viability, T/C [21] 58.7% | viability, T/C [22] 61.9% | viability, T/C [23] 58.3% | viability, T/C [24] 60.5% | viability, T/C [25] 52.4% | viability, T/C [26] 58.3% | viability, T/C [27] 57.9% | viability, T/C [28] 44.3% | viability, T/C [29] 58.7% | viability, T/C [30] 50.5% | viability, T/C [31] 55.8% | viability, T/C [32] 45.7% | viability, T/C [33] 37.8% | viability, T/C [34] 46% | viability, T/C [35] 66.1% | viability, T/C [36] 36.2%
